# Source: patent US10407428B2, “Spiro-isoquinoline-1,4′-piperidine compounds having multimodal activity against pain” (ESTEVE PHARMACEUTICALS, S.A., priority 2014, dated 2019)
# Target: human σ1 receptor and human μ-opioid receptor
# Experiment: Human σ1 receptor radioligand assay and human μ-opioid receptor radioligand assay (μ and σ1 dual binding)
# Parameters: key to μ and σ1 dual binding: +: Both Ki-μ and Ki-σ1>=500 nM; ++: One Ki<500 nM while the other Ki is >=500 nM; +++: Both Ki-μ and Ki-σ1<500 nM; ++++: Both Ki-μ and Ki-σ1<100 nM
# Details: not given
SMILES,Ki [nM],μ and σ1 dual binding
"CN1CCc2ccccc2C12CCN(CC(=O)c1ccccc1)CC2 [Example 69, 2-(2-methyl-3,4-dihydro-2H-spiro[isoquinoline-1,4′-piperidine]-1′-yl)-1-phenylethanone]",< 500,–
"CN1CCc2ccccc2C12CCN(CC(=O)N1CCOCC1)CC2 [Example 70, 2-(2-methyl-3,4-dihydro-2H-spiro[isoquinoline-1,4′-piperidine]-1′-yl)-1-morpholinoethanone]",< 500,–
"CN1CCc2ccccc2C12CCN(CC(=O)N1CCCCC1)CC2 [Example 71, 2-(2-methyl-3,4-dihydro-2H-spiro[isoquinoline-1,4′-piperidine]-1′-yl)-1-(piperidin-1-yl)ethanone]",< 500,–
"CN(C(=O)CN1CCC2(CC1)c1ccccc1CCN2C)c1ccccc1 [Example 72, N-methyl-2-(2-methyl-3,4-dihydro-2H-spiro[isoquinoline-1,4′-piperidine]-1′-yl)-N-phenylacetamide]",–,++
"CN(C)C(=O)CN1CCC2(CC1)c1ccccc1CCN2C [Example 73, N,N-dimethyl-2-(2-methyl-3,4-dihydro-2H-spiro[isoquinoline-1,4′-piperidine]-1′-yl)acetamide]",–,++
"CN1CCc2ccccc2C12CCN(CCC1CCOCC1)CC2 [Example 74, 2-methyl-1′-(2-(tetrahydro-2H-pyran-4-yl)ethyl)-3,4-dihydro-2H-spiro[isoquinoline-1,4′-piperidine]]",< 500,–
"CN1CCc2ccccc2C12CCN(CCc1ccccn1)CC2 [Example 75, 2-methyl-1′-(2-(pyridin-2-yl)ethyl)-3,4-dihydro-2H-spiro[isoquinoline-1,4′-piperidine]]",< 500,–
"CN1CCc2ccccc2C12CCN(CCc1cccnc1)CC2 [Example 76, 2-methyl-1′-(2-(pyridin-3-yl)ethyl)-3,4-dihydro-2H-spiro[isoquinoline-1,4′-piperidine]]",< 500,–
"COCCN1CCC2(CC1)c1ccccc1CCN2C [Example 77, 1′-(2-methoxyethyl)-2-methyl-3,4-dihydro-2H-spiro[isoquinoline-1,4′-piperidine]]",–,++
"CC(C)OCCN1CCC2(CC1)c1ccccc1CCN2C [Example 78, 1′-(2-isopropoxyethyl)-2-methyl-3,4-dihydro-2H-spiro[isoquinoline-1,4′-piperidine]]",< 500,–
"CN1CCc2ccccc2C12CCN(CCN1CCCCC1)CC2 [Example 79, 2-methyl-1′-(2-(piperidin-1-yl)ethyl)-3,4-dihydro-2H-spiro[isoquinoline-1,4′-piperidine]]",< 500,–
"CN(C(=O)CCN1CCC2(CC1)c1ccccc1CCN2C)c1ccccc1 [Example 81, N-methyl-3-(2-methyl-3,4-dihydro-2H-spiro[isoquinoline-1,4′-piperidine]-1′-yl)-N-phenylpropanamide]",–,++
"CN1CCc2ccccc2C12CCN(Cc1ccccn1)CC2 [Example 82, 2-methyl-1′-(pyridin-2-ylmethyl)-3,4-dihydro-2H-spiro[isoquinoline-1,4′-piperidine]]",< 500,–
"CN1CCc2ccccc2C12CCN(Cc1ccncc1)CC2 [Example 83, 2-methyl-1′-(pyridin-4-ylmethyl)-3,4-dihydro-2H-spiro[isoquinoline-1,4′-piperidine]]",–,++
"CN1CCc2ccccc2C12CCN(Cc1cccnc1)CC2 [Example 84, 2-methyl-1′-(pyridin-3-ylmethyl)-3,4-dihydro-2H-spiro[isoquinoline-1,4′-piperidine]]",< 500,–
"CC(C(=O)N1CCC(F)CC1)N1CCC2(CC1)c1ccccc1CCN2C (stereo not drawn) [Example 86, 1-(4-fluoropiperidin-1-yl)-2-(2-methyl-3,4-dihydro-2H-spiro[isoquinoline-1,4′-piperidine]-1′-yl)propan-1-one]",–,++
"CC(C)CN(C)C(=O)CN1CCC2(CC1)c1ccccc1CCN2C [Example 87, N-isobutyl-N-methyl-2-(2-methyl-3,4-dihydro-2H-spiro[isoquinoline-1,4′-piperidine]-1′-yl)acetamide]",–,++
"CN1CCc2ccccc2C12CCN(CC(=O)N1CCCC(F)(F)C1)CC2 [Example 88, 1-(3,3-difluoropiperidin-1-yl)-2-(2-methyl-3,4-dihydro-2H-spiro[isoquinoline-1,4′-piperidine]-1′-yl)ethanone]",–,++
"CCN(C(=O)CN1CCC2(CC1)c1ccccc1CCN2C)C(C)C [Example 89, N-ethyl-N-isopropyl-2-(2-methyl-3,4-dihydro-2H-spiro[isoquinoline-1,4′-piperidine]-1′-yl)acetamide]",< 500,–

SMILES,Ki [nM],μ and σ1 dual binding
"CN1CCc2ccccc2C12CCN(CC(=O)N1CCCC1)CC2 [Example 90, 2-(2-methyl-3,4-dihydro-2H-spiro[isoquinoline-1,4′-piperidine]-1′-yl)-1-(pyrrolidin-1-yl)ethanone]",–,++
"CN1CCc2ccccc2C12CCN(CC(=O)N1CCC(C(F)(F)F)CC1)CC2 [Example 91, 2-(2-methyl-3,4-dihydro-2H-spiro[isoquinoline-1,4′-piperidine]-1′-yl)-1-(4-(trifluoromethyl)piperidin-1-yl)ethanone]",< 500,–
"CN1CCc2ccccc2C12CCN(CC(=O)N1CCC(F)(F)C1)CC2 [Example 92, 1-(3,3-difluoropyrrolidin-1-yl)-2-(2-methyl-3,4-dihydro-2H-spiro[isoquinoline-1,4′-piperidine]-1′-yl)ethanone]",–,++
"CN(Cc1ccccc1)C(=O)CN1CCC2(CC1)c1ccccc1CCN2C [Example 93, N-benzyl-N-methyl-2-(2-methyl-3,4-dihydro-2H-spiro[isoquinoline-1,4′-piperidine]-1′-yl)acetamide]",< 100,–
"CN1CCc2ccccc2C12CCN(CC(=O)N1CC[C@H](F)C1)CC2 [Example 94, (S)-1-(3-fluoropyrrolidin-1-yl)-2-(2-methyl-3,4-dihydro-2H-spiro[isoquinoline-1,4′-piperidine]-1′-yl)ethanone]",–,++
"CN1CCc2ccccc2C12CCN(CC(=O)N1CC[C@@H](F)C1)CC2 [Example 95, (R)-1-(3-fluoropyrrolidin-1-yl)-2-(2-methyl-3,4-dihydro-2H-spiro[isoquinoline-1,4′-piperidine]-1′-yl)ethanone]",–,++
"CN1CCc2ccccc2C12CCN(CC(O)c1cccnc1)CC2 (stereo not drawn) [Example 96, 2-(2-methyl-3,4-dihydro-2H-spiro[isoquinoline-1,4′-piperidine]-1′-yl)-1-(pyridin-3-yl)etanol]",–,++
"CN1CCc2ccccc2C12CCN(CC(O)c1ccccn1)CC2 (stereo not drawn) [Example 97, 2-(2-methyl-3,4-dihydro-2H-spiro[isoquinoline-1,4′-piperidine]-1′-yl)-1-(pyridin-2-yl)ethanol]",–,++
"CN1CCc2ccccc2C12CCN(CC(O)c1ccncc1)CC2 (stereo not drawn) [Example 98, 2-(2-methyl-3,4-dihydro-2H-spiro[isoquinoline-1,4′-piperidine]-1′-yl)-1-(pyridin-4-yl)ethanol]",< 500,–
"CN1CCc2ccccc2C12CCN(C[C@H](O)c1ccncc1)CC2 [Example 99, (R)-2-(2-methyl-3,4-dihydro-2H-spiro[isoquinoline-1,4′-piperidine]-1′-yl)-1-(pyridin-4-yl)ethanol]",< 500,–
"CN1CCc2ccccc2C12CCN(C[C@@H](O)c1ccncc1)CC2 [Example 100, (S)-2-(2-methyl-3,4-dihydro-2H-spiro[isoquinoline-1,4′-piperidine]-1′-yl)-1-(pyridin-4-yl)ethanol]",< 500,–
"CCN(CC1CC1)C(=O)CN1CCC2(CC1)c1ccccc1CCN2C [Example 101, N-(cyclopropylmethyl)-N-ethyl-2-(2-methyl-3,4-dihydro-2H-spiro[isoquinoline-1,4′-piperidine]-1′-yl)acetamide]",< 500,–
"CC(C)N(C(=O)CN1CCC2(CC1)c1ccccc1CCN2C)C(C)C [Example 102, N,N-diisopropyl-2-(2-methyl-3,4-dihydro-2H-spiro[isoquinoline-1,4′-piperidine]-1′-yl)acetamide]",–,++
"CC(C)N(C)C(=O)CN1CCC2(CC1)c1ccccc1CCN2C [Example 103, N-isopropyl-N-methyl-2-(2-methyl-3,4-dihydro-2H-spiro[isoquinoline-1,4′-piperidine]-1′-yl)acetamide]",< 500,–
"CCN(CC(C)C)C(=O)CN1CCC2(CC1)c1ccccc1CCN2C [Example 104, N-ethyl-N-isobutyl-2-(2-methyl-3,4-dihydro-2H-spiro[isoquinoline-1,4′-piperidine]-1′-yl)acetamide]",–,++
"CCCN(CC)C(=O)CN1CCC2(CC1)c1ccccc1CCN2C [Example 105, N-ethyl-2-(2-methyl-3,4-dihydro-2H-spiro[isoquinoline-1,4′-piperidine]-1′-yl)-N-propylacetamide]",–,++
"CCN(C(=O)CN1CCC2(CC1)c1ccccc1CCN2C)C1CC1 [Example 106, N-cyclopropyl-N-ethyl-2-(2-methyl-3,4-dihydro-2H-spiro[isoquinoline-1,4′-piperidine]-1′-yl)acetamide]",< 500,–
"CCCN(C(=O)CN1CCC2(CC1)c1ccccc1CCN2C)C(C)C [Example 107, N-isopropyl-2-(2-methyl-3,4-dihydro-2H-spiro[isoquinoline-1,4′-piperidine]-1′-yl)-N-propylacetamide]",–,++

# Same assay, conditions: combined class for Ki-μ ([3H]-DAMGO, CHO-K1 membranes) and Ki-σ1 ([3H](+)-pentazocine, HEK-293 membranes)
row,SMILES,Ki [nM]
1,"CN1CCc2ccccc2C12CCN(CCN1CCOCC1=O)CC2 [Example 80, 4-(2-(2-methyl-3,4-dihydro-2H-spiro[isoquinoline-1,4′-piperidine]-1′-yl)ethyl)morpholin-3-one]",≥ 500
2,"CN1CCc2ccccc2C12CCN(CCc1cccc([N+](=O)[O-])c1)CC2 [Example 85, 2-methyl-1′-(3-nitrophenethyl)-3,4-dihydro-2H-spiro[isoquinoline-1,4′-piperidine]]",≥ 500
